Consider six compounds from patent US5235055A, “Antipsychotic quinoline derivatives of benzodioxanmethylamine” (American Home Products Corporation, priority 1992, dated 1993).

One assay relates to 5-HT1A receptor. The conditions noted are these: Fozard et al. 1987, cited from earlier work.
The next assay relates to synthesis of dopamine. Put plainly: Effect on dopamine synthesis: inhibition of dopa accumulation in GBL/NSD-1015-treated rats (Walters and Roth). The conditions noted are these: Rattus norvegicus, sc, read-out: Dopa Accumulation (% inhib. @ 10 mg/kg, sc). The assay is classed as in vivo, rats (male, Sprague-Dawley). The method, then: The effect of the compounds of the invention on the synthesis of dopamine was established by the method of Walters and Roth, Naunyn-Schmiedeberg's Arch. Pharmacol. 296:5-14, 1976, in which rats (male, Sprague-Dawley, Charles River, 200-350 g) were administered vehicle or test drug ten minutes prior to the administration of gamma butyrolactone (GBL; 750 mg/kg, ip to inhibit dopaminergic impulse flow) and 20 minutes prior to NSD-1015 (100 mg/kg, ip to prevent the conversion of dopa to dopamine). Thirty minutes after NSD-1015 all rats were decapitated and the nucleus accumbens and the striatum were removed for analysis. Following perchloric acid extraction of the tissue, the extracts were placed over alumina columns to collect and concentrate dopa and other catechols. This eluate was then subjected to HPLC analysis using electrochemical detection to quantify the levels of dopa present. Dopamine autoreceptor agonists, under the conditions used above, inhibit dopa accumulation.

The target of another assay is T1, dopamine D2 receptor (Rattus norvegicus, UniProt P61169).
T1 construct: homogenized rat striatal brain tissue; from tissue; host or cells: rat striatum (homogenized brain tissue)
T1 sequence (P61169 whole entry): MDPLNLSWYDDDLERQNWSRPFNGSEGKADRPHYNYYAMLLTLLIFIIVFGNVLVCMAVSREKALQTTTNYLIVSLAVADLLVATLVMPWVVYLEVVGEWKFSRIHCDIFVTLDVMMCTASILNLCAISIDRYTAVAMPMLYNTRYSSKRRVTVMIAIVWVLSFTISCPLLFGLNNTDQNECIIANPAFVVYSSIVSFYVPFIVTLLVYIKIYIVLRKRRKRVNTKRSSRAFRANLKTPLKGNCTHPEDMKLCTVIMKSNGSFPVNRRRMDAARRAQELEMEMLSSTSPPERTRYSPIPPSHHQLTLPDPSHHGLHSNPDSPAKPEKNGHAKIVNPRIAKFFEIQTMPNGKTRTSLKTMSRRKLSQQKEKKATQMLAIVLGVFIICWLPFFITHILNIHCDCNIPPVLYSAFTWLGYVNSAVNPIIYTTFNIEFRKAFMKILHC
The experiment in a line: Affinity for dopamine D2 receptor (3H-quinpirole, rat striatal homogenate). The format is binding. Conditions: rat striatal brain tissue. The method, then:
Affinity for the dopamine D2 receptor was established by a modification of the standard experimental test procedure of Seemen and Schaus, European Journal of Pharmacology 203: 105-109, 1991, wherein homogenized rat striatal brain tissue is incubated with ^3 H-quinpirole and various concentrations of test compound, filtered and washed and counted in a Betaplate scintillation counter.

The next assay deals with mouse locomotor activity. Put plainly: Reduction of mouse locomotor activity (hypolocomotion; Martin and Bendensky). The assay is classed as in vivo, mice (male, CF-1). Conditions: ip, horizontal activity counts 10 to 20 minutes after dosing. The method, then:
The antipsychotic activity of the compounds of the invention was further established by a determination of the compounds' ability to reduce mouse locomotor activity according to the method of Martin and Bendensky, J. Pharmacol. Exp. Therap. 229:706-711, 1984, in which mice (male, CF-1, Charles River, 20-30 g) were injected with vehicle or various doses of each drug and locomotor activity was measured for 30 minutes using automated infrared activity monitors (Omnitech--8×8 inch open field) located in a darkened room. ED50 's were calculated from the horizontal activity counts collected from 10 to 20 minutes after dosing using a nonlinear regression analysis with inverse prediction.

Where two headings read alike, the source gives them in different places.

`O=C1CC2(CCCC2)CC(=O)N1CCCCNCC1COc2ccccc2O1` (single isomer, unassigned; (-)) [(-)-MDL 72832]: in the assay on 5-HT1A receptor ((-)-isomer vs dextrorotary isomer), the “binding at the 5-HT1A receptor site relative to the dextrorotary isomer (times as much)” value is 32 times.
In the case of `c1ccc2c(c1)OCC(CNCCCOc1ccc3cccnc3c1)O2` (centres unmarked) [Example 1, N-[3-(Quinolin-7-yloxy)propyl]-2,3-dihydro-1,4-benzodioxin-2-methanamine], the figures for the inhibition at 10 mg/kg in the assay on synthesis of dopamine (limbic (L) brain tissue) and with synthesis of dopamine (striatal (S) brain tissue) were 29% and 44%, respectively.
As a reminder, the IC50 is the midpoint of a concentration-inhibition curve. As a reminder, the ED50 is the dose at which the effect has come halfway, by size or by number of responders. Higher therefore signals a need for a large dose. In turn, `c1cnc2cc(OCCCNCC3COc4cc5c(cc4O3)OCO5)ccc2c1` (centres unmarked) [Example 2, N-[3-(Quinolin-7-yloxy)propyl]-2,3-dihydro-6,7-methylenedioxy-1,4-benzodioxin-2-methanamine] came in with an IC50 at dopamine D2 receptor of 63 nM. Also, the inhibition at 10 mg/kg with synthesis of dopamine (limbic (L) brain tissue) is 60.4%. In addition, the 50% effect level in the assay with mouse locomotor activity (ED50) was put at a dose of 3 mg/kg.
At dopamine D2 receptor, `c1cc(OCCCNCC2COc3cc4c(cc3O2)OCO4)c2cccnc2c1` (centres unmarked) [Example 3, N-[3-(Quinolin-5-yloxy)propyl]-2,3-dihydro-6,7-methylenedioxy-1,4-benzodioxin-2-methanamine] displayed an inhibition at 0.1 µM of 25%. In addition, in the assay with synthesis of dopamine (limbic (L) brain tissue), the inhibition at 10 mg/kg came out at 42.6%. In the assay with mouse locomotor activity, this compound displayed an ED50 of 12.6 mg/kg.
The compound `COc1ccc2c(c1)OC(CNCCCOc1ccc3cccnc3c1)CO2` (centres unmarked) [Example 4, N-[3-(Quinolin-7-yloxy)propyl]-2,3-dihydro-7-methoxy-1,4-benzodioxin-2-methanamine] gave an inhibition at 0.1 µM against dopamine D2 receptor of 55%.
Consider `O=C1CC2(CCCC2)CC(=O)N1CCCCNCC1COc2ccccc2O1` (centres unmarked) [MDL 72832, 8-[4-(1,4-benzodioxan-2-ylmethylamino)butyl]-8-azaspiro[4.5]decane-7,9-dione], for which the “ligand for 5-HT1A receptors (in words)” value with 5-HT1A receptor is “selective and stereospecific”.
